Results from patent US9802949B2, “Fused ring compounds as hepatitis C virus inhibitors, pharmaceutical compositions and uses thereof” (SUNSHINE LAKE PHARMA CO., LTD., priority 2012, dated 2017).

What was measured:
HCV GT1a replicon = assay: HCV replicon assay (Huh-7 cells stably transfected with HCV GT1a replicon; luciferase or NEO gene qPCR readout); assay type: cell-based; details: Hepatitis C virus, HCV 1a genotype replicon, 72 hours
Procedure: (§1) HCV Replicon System was utilized as a screening model in the present disclosure to evaluate the antivirus effects of the compounds disclosed herein against HCV. HCV Replicon assay was first described in Science, 1999, 285 (5424), 110-3. […] To determine the potential anti-HCV effects of the test compounds, luciferase assay and antibiotic Neomycin resistance gene were tested according to the method described in Science. 1999 Jul. 2; 285 (5424), 110-3 and J. Virol. 2003 March; 77 (5), 3007-19.
(§2) In a word, the compounds disclosed herein were tested by using human hepatic carcinoma cell line Huh-7 which is transfected stably with HCV GT1a, GT1b or GT2a replicon respectively, and resistant cells of Y93H, L31F, P32L or I302V and wild-type cells HCV 1b. HCV Replicon System disclosed herein contains G418 resistance gene NEO and Luciferase Reporter Gene, and the level of HCV replication in host cells is detected and characterized by the expression level of the NEO gene or Luciferase Reporter Gene, so the effects of the compounds herein inhibit HCV replication can be evaluated in this system. In this article, a real-time quantitative polymerase chain reaction (qPCR) method was used to detect NEO gene expression level, and chemiluminescence method was used to test Luciferase Reporter Gene expression level.
(§3) 1. Test Method for Measuring EC50 of the Compounds Based on Luciferase Assay.
(§4) The Huh-7 cells transfected with HCV replicons system were seeded into 96-well plates (8,000 cells in 125 μL/well) respectively; each test compound was diluted to desired concentration using 5-fold serial dilutions protocol, 10 doses in duplicate, and added to wells with POD™ 810 Plate Assembler. The plates were incubated in a CO2 incubator for 72 hours; after that, 40 μL of Luciferase assay substrate (Promega Bright-Glo) was added to each well, and detected by a chemiluminescence detection system (Topcount Microplate Scintillation and Luminescence Counter) 5 minutes later; the EC50 (half-maximal effective concentration, concentration for 50% of maximal effect) values of test compounds were analyzed by GraphPad Prism software. In this paper, experiments were repeated twice and set the wells without compounds as negative control.
(§5) 2. Test Method for Measuring EC50 of the Compounds by Detecting Antibiotic G418 Resistance Gene NEO Gene.
(§6) The Huh-7 cells transfected with HCV replicons system were seeded into 96-well plates (8,000 cells in 125 μL/well) respectively; each test compound was diluted to desired concentration using 5-fold serial dilutions protocol, 10 doses in duplicate, and added to each well with POD™ 810 Plate Assembler; the cells were incubated in a CO2 incubator for 72 hours; and detected the expression level of the NEO gene expression with real-time quantitative PCR later; the EC50 (half-maximal effective concentration, concentration for 50% of maximal effect) values of test compounds were analyzed by GraphPad Prism software, respectively. In this paper, experiments were repeated twice and set the wells without compounds as negative control.

HCV GT1b replicon = assay: HCV replicon assay (Huh-7 cells stably transfected with HCV GT1b replicon; luciferase or NEO gene qPCR readout); assay type: cell-based; details: Hepatitis C virus, HCV 1b genotype replicon, 72 hours
Procedure: as §1, §2, §3, §4, §5, §6

## COC(=O)N[C@H](C(=O)N1CCC[C@H]1c1ncc(-c2ccc(-c3ccc(-c4ccc5nc([C@@H]6CCCN6C(=O)[C@@H](NC(=O)OC)C(C)C)[nH]c(=O)c5c4)c4c3C3CC(F)(F)C3C4)cc2)[nH]1)C(C)C (stereo partly drawn) [Example 28]
HCV GT1a replicon
  EC50: 0.022 nM
HCV GT1b replicon
  EC50: 0.008 nM

## CC(C)[C@H](NC(=O)OC(C)(C)C)C(=O)N1CCC[C@H]1c1ncc(-c2ccc(-c3ccc(-c4cnc([C@@H]5CCCN5C(=O)[C@@H](NC(=O)OC(C)(C)C)C(C)C)[nH]4)c4c3C3CCC3C4)cc2)[nH]1 (stereo partly drawn) [Example 10]
HCV GT1a replicon
  EC50: 4.33 nM
HCV GT1b replicon
  EC50: 0.927 nM

## COC(=O)N[C@H](C(=O)N1CCC[C@H]1c1ncc(-c2ccc(-c3sc(-c4ccc5nc([C@@H]6CCCN6C(=O)[C@@H](NC(=O)OC)C(C)C)[nH]c5c4)c4c3C3CCC3C4)cc2)[nH]1)C(C)C (stereo partly drawn) [Example 26]
HCV GT1a replicon
  EC50: 0.832 nM
HCV GT1b replicon
  EC50: 0.048 nM

## COC(=O)N[C@H](C(=O)N1CCC[C@H]1c1ncc(-c2ccc(-c3ccc(-c4cnc([C@@H]5CCCN5C(=O)[C@@H](NC(=O)OC)C(C)C)[nH]4)c4c3C3CCC3C4)cc2)[nH]1)C(C)C (stereo partly drawn) [Example 1]
HCV GT1a replicon
  EC50: 0.605 nM
HCV GT1b replicon
  EC50: 0.005 nM

## COC(=O)N[C@H](C(=O)N1CCC[C@H]1c1nc(-c2ccc(-c3ccc(-c4ccc5nc([C@@H]6CCCN6C(=O)[C@@H](NC(=O)OC)C(C)C)[nH]c5c4)c4c3C3CCC3C4)c3c2CCC3)c[nH]1)C(C)C (stereo partly drawn) [Example 22]
HCV GT1a replicon
  EC50: 0.233 nM
HCV GT1b replicon
  EC50: 0.082 nM

## COC(=O)N[C@H](C(=O)N1C2CC2C[C@H]1c1ncc(-c2ccc(-c3ccc(-c4ccc5nc([C@@H]6CC7CC7N6C(=O)[C@@H](NC(=O)OC)C(C)C)[nH]c5c4)c4c3C3CCC3C4)cc2)[nH]1)C(C)C (stereo partly drawn) [Example 18]
HCV GT1a replicon
  EC50: 0.083 nM
HCV GT1b replicon
  EC50: 0.03 nM

## COC(=O)N[C@H](C(=O)N1CCC[C@H]1C(=O)Nc1ccc(-c2ccc(-c3ccc4nc([C@@H]5CCCN5C(=O)[C@@H](NC(=O)OC)C(C)C)[nH]c4c3)c3c2CC2CCC32)cc1)C(C)C (stereo partly drawn) [Example 27]
HCV GT1a replicon
  EC50: 1.64 nM
HCV GT1b replicon
  EC50: 0.672 nM

## COC(=O)N[C@H](C(=O)N1CCC[C@H]1c1nc2ccc(-c3ccc(-c4ccc(-c5cnc([C@@H]6C7CCC(C7)N6C(=O)[C@@H](NC(=O)OC)C(C)C)[nH]5)cc4)c4c3C3CCC3C4)cc2[nH]1)C(C)C (stereo partly drawn) [Example 2]
HCV GT1a replicon
  EC50: 0.071 nM
HCV GT1b replicon
  EC50: 0.021 nM

## COC(=O)NC(C(=O)N1CCCC1c1ncc(-c2ccc(-c3ccc(-c4ccc5nc(C6CCCN6C(=O)C(NC(=O)OC)C(C)C)[nH]c5c4)c4c3C3CCC3C4)cc2)[nH]1)C(C)C (stereo not drawn) [Example 38]
HCV GT1a replicon
  EC50: 0.058 nM
HCV GT1b replicon
  EC50: 0.013 nM

## COC(=O)N[C@H](C(=O)N1CC(C)=C[C@H]1c1ncc(-c2ccc(-c3ccc(-c4cnc([C@@H]5C=C(C)CN5C(=O)[C@@H](NC(=O)OC)C(C)C)[nH]4)c4c3C3CCC3C4)cc2)[nH]1)C(C)C (stereo partly drawn) [Example 21]
HCV GT1a replicon
  EC50: 0.068 nM
HCV GT1b replicon
  EC50: 0.015 nM

## COC(=O)N[C@H](C(=O)N1C[C@@H](F)C[C@H]1c1ncc(-c2ccc(-c3ccc(-c4ccc5nc([C@@H]6C[C@H](F)CN6C(=O)[C@@H](NC(=O)OC)C(C)C)[nH]c5c4)c4c3C3CCC3C4)cc2)[nH]1)C(C)C (stereo partly drawn) [Example 9]
HCV GT1a replicon
  EC50: 0.035 nM
HCV GT1b replicon
  EC50: 0.014 nM

## COC(=O)N[C@H](C(=O)N1CCC[C@H]1C1=Nc2cc(-c3ccc(C#Cc4cnc([C@@H]5CCCN5C(=O)[C@@H](NC(=O)OC)C5CCCCC5)[nH]4)c4c3CC3C(=O)CC43)ccc2C(C)(C)N1)C1CCCCC1 (stereo partly drawn) [Example 29]
HCV GT1a replicon
  EC50: 7.55 nM
HCV GT1b replicon
  EC50: 0.309 nM
